In paper PMC6013238, “Development of novel NEMO-binding domain mimetics for inhibiting IKK/NF-κB activation” (PLoS Biology, 2018):

Assays:
[1] = system: Ercc1−/Δ mice; assay: Chronic treatment of Ercc1−/Δ mice (health span); format: in vivo, mouse; settings: preliminary experiments
Text: Thus, these novel NBD mimetics could be used not only for treatment of inflammatory and degenerative diseases but also for aging.

[2] = system: noncanonical NF-κB pathway; assay: Noncanonical NF-κB pathway, anti-LTβR-stimulated Raw 264.7 cells (p100 to p52 processing); format: cell-based, mouse; settings: 100 μM, 30 min; anti-LTβR 8 h
Protocol: To determine whether the novel NBD mimetics target the NEMO-IKKβ interaction in vivo, co-immunoprecipitations were performed using extracts from Raw 264.7 macrophages (Fig 5A). […] No interaction between NEMO and TNF receptor-associated factor 2 (TRAF2) or IκBα was observed under these conditions. […] The levels of phosphorylated IKK complex, IκBα, and p65 in response to TNF-α and LPS were all reduced by SR12343 (Fig 5D & 5E). […] However, there were no changes in the levels of phospho-c-Jun N-terminal kinase (p-JNK), p-p38MAPK, total JNK, and p38MAPK by treatment with SR12343 (150 μM) in response to TNF-α or LPS stimulation (Fig 5G & 5H). […]
(A) Co-IP analysis detecting the IKKβ/NEMO interaction. […] NEMO-binding products were then analyzed for levels of IKKβ, IKKα, TRAF2, and IκBα (negative control), and levels of NEMO were used as a loading control (left panel). […] The levels of IKKβ-FLAG binding to GST-NEMO were determined by western blot analysis with GST-NEMO used as a loading control. […] Cell lysates were analyzed for activity of the IKK/NF-κB signaling pathway including activation of IKK complex, IκBα, and p65. […] Cell lysates were harvested and analyzed for activation of noncanonical NF-κB signaling, the processing of p100 to p52. […]

[3] = Hematological measures in acutely treated mice; format: in vivo, mouse; settings: SR12343 30 mg/kg i.p. 30 min before LPS 10 mg/kg, 2 h; mean ± SD
Protocol: To determine their NF-κB inhibitory effects in vivo, SR12343 and SR12460 were tested in an acute model of LPS-induced systemic endotoxemia. C57BL/6J mice were pretreated with vehicle control, 8K-NBD peptide, or NBD mimetics at 10 mg/kg for 30 min, followed by LPS induction at 10 mg/kg (Fig 6B). Lung and liver were harvested 2–4 h post treatment for qRT-PCR analysis of NF-κB target genes. […] Despite lower plasma and tissue concentrations of SR12343 compared to SR12460, its inhibition of NF-κB/IKK in liver and lung were greater than that of SR12460 (Fig 6C). Similarly, acute treatment with SR12343 also affected the LPS-induced expression of NF-κB target genes at protein level. The extent of phosphorylation of IκBα and the levels of COX-2 were reduced in lung and liver tissues treated with SR12343 (Fig 6D and 6E). […] However, no significant differences in lung histopathology were observed. Finally, there was a slight reduction in the number of white blood cells and neutrophils in the SR12343-treated group (Table 2).
Nine mice (male; C57BL/6, 9–13 wk) were randomly divided into 3 groups with 3 mice in each group. Mice were injected i.p. with vehicle (DMSO:Tween80:H2O, 10:10:80) or small-molecule SR12343 (30 mg/kg) for 30 min and then injected i.p. with saline (1 ml/kg) or LPS (10 mg/kg in saline). After 2 h, mice were euthanized by CO2 asphyxiation prior to blood sampling via cardiac puncture. The blood from each mouse was put into 2 collection tubes with coagulant or anticoagulant heparin (approximately 0.6 mL each). The samples in the tubes coated with the anticoagulant heparin were hand-mixed several times and placed on wet ice for hematological analysis using an automatic hematology analyzer (Hemavet 950FS; Drew Scientific, Miami Lakes, FL). Samples in tubes containing no anticoagulant were allowed to clot before centrifugation and submission for serum biochemical analysis using the VetScan VS2 Analyzer with the Comprehensive Diagnostic Profile reagent rotor (Abaxis, Union City, CA). The ALT, AST, and […] activities in the serum were quantitated by a colorimetric, enzymatic method using the Clinical Chemistry Analyzer Cobas c311 (Roche Diagnostics, Risch-Rotkreuz, Switzerland) as per the manufacturer’s instructions.

Structure (SMILES): O=C(CNc1ccc(Cl)cn1)NCCc1cccc(Br)c1 [SR12343]
- Health span [1]: extended health span
- Activation of noncanonical NF-κB pathway (p100 to p52 processing) [2]: no effect
- Hematocrit [3]: 53.0 ± 1.5%
- Hemoglobin [3]: 15.3 ± 0.4 g/dL
- Mean corpuscular hemoglobin [3]: 14.8 ± 0.2 pg
- Mean corpuscular hemoglobin concentration [3]: 28.9 ± 0.2 g/dL
- Mean corpuscular volume [3]: 51.2 ± 1.0 fL
- Mean platelet volume [3]: 5.7 ± 0.8 fL
- Platelets [3]: 170.7 ± 64.0 K/μL
- Red blood cells [3]: 10.4 ± 0.3 M/μL
- Red cell distribution width [3]: 15.0 ± 0.2%
- White blood cells [3]: 7.4 ± 3.3 K/μL
